Data set [1] concerns Plasmodium berghei NK65 strain. As to the kind of experiment: Peters 4-day suppressive test in infected BALB/c mice. Format: in vivo, Plasmodium berghei in BALB/c mice. On the procedure:
Adult BALB/c mice (22 ± 3 g weight) were used for the in vivo anti-malarial tests and received water and food ad libitum. In vivo tests were performed using ‘Guidelines for Ethical Conduct in The Care and Use of Animals of the National Institute for Amazon Research (INPA)’.
Limonoids 3 and 4 were assayed for in vivo anti-malarial activity in the Peters 4-day suppressive test against the Plasmodium berghei NK65 strain in BALB/c female mice, each inoculated with 1 × 10^5 parasitized red blood cells. The mice were randomly divided into groups of five individuals and individual […] evaluation of parasitaemia versus controls (negative control groups were treated with 2% DMSO vehicle and positive control groups with chloroquine) on days 5 and 7 following an established procedure. Mortality was monitored in all groups for four weeks after inoculation. Two independent in vivo experiments were performed.

For data set [2], the system named is Plasmodium falciparum K1 strain. As to the kind of experiment: In vitro anti-plasmodial assay (micro test), growth inhibition of P. falciparum K1. In kind it is cell-based. To be noted: for IC50: Plasmodium falciparum, read-out: IC50 Plasmodium falciparum K1; for Result Plasmodium falciparum K1: activity class from IC50, K1 strain. The procedure: Briefly, this procedure involved preparing 5 mg/mL stock solutions of each compound in dimethyl sulfoxide (DMSO). The stock solutions were diluted to provide test solutions having concentrations in the range 0.13-100 μg/mL. Test solutions were transferred to 96-well test plates containing parasitized red blood cells with initial 2% haematocrit and 1% parasitaemia. Each sample was evaluated in duplicate and the test plate was incubated for 48 h at 37°C. After incubation, quantification of parasites was achieved by optical microscopy on blood smears from each well [27].

Another data set relates to MRC-5 human fibroblasts. As to the kind of experiment: Cytotoxicity assay (AlamarBlue) on MRC-5 human fibroblasts. Format: cell-based. The procedure: The MRC-5 cell line of human fibroblasts was grown in Dulbecco’s Modified Eagle’s Medium (DMEM) supplemented with 10% fetal bovine serum, 2 mM glutamine, 100 μg/mL streptomycin and 100 U/mL penicillin, and incubated at 37°C with a 5% atmosphere of CO2. For assays, the cells were plated in 96-well plates (2.5 × 10^4 cells/well) and the AlamarBlue™ assay was performed using a previously described procedure. After incubation for 24 h, compounds 1-5 were individually dissolved in DMSO and the resulting solutions were diluted in culture medium. The resulting dilute solutions of each sample were added to wells at final (well) concentrations of 1.56-100 μg/mL. Control groups had final well concentrations of 0.1% DMSO. The plates were further incubated for 48 h. 3 h before the end of the incubation period, AlamarBlue™ (10 μL) was added to each well. The fluorescent signal was monitored with a multiplate reader using 530-560 nm excitation and 590 nm emission wavelengths.

Data set [3] concerns FCR-3 strain of P. falciparum. The arrangement: method as in doi:10.1016/j.tet.2011.12.076. The following applies: read-out: IC50 against the FCR-3 strain of P. falciparum; cited from earlier work.
The test system of data set [4] is W2 strain of P. falciparum. The following applies: cited from earlier work.
Data set [5] deals with K1 and FCR-3 strains of P. falciparum. The following applies: earlier studies; read-out: IC50 against the K1 and FCR-3 strains of P. falciparum; cited from earlier work.
In data set [6] the test system is W2, D6 and FCR-3 strains of P. falciparum. The arrangement: method as in doi:10.1016/j.tet.2011.12.076, PMID 9134742, doi:10.1111/j.1744-7348.2003.tb00279.x. The following applies: range over strains; read-out: IC50 against W2, D6 and FCR-3 strains of P. falciparum; cited from earlier work.
The subject of another data set is P. berghei strain ANKA. The following applies: cited from earlier work.
Details of data set [7]: method as in PMID 12570769. The following applies: cited from earlier work.
A further data set has as its system P. falciparum D6. The arrangement: method as in PMID 9134742. To be noted: cited from earlier work.
The next data set concerns Plasmodium vinckei. The arrangement: method as in PMID 23433124. The following applies: cited from earlier work.
[8] abbreviates: MRC5, MRC-5, 48 h, read-out: IC50 Human fibroblasts MRC-5.
Where [9] appears, read: 50 mg/kg/day, vs untreated controls.
Setting [10] is: 100 mg/kg/day, vs untreated controls.

Consider 15 compounds from paper PMC4138406, “In vitro and in vivo anti-malarial activity of limonoids isolated from the residual seed biomass from Carapa guianensis (andiroba) oil production” (Malaria Journal, 2014).

≈ marks a conversion by molar mass, not a printed value. Where “and” joins values, the source holds several entries; their conditions need not be identical. Equal values may be shown once. Where a name gives a salt, the structure may show the parent alone. Read-outs that look alike come from different tables or passages of the source. Some results are limits rather than exact numbers.

As for `CCN(CC)CCCC(C)Nc1ccnc2cc(Cl)ccc12` (stereo not drawn) [chloroquine diphosphate, reference compound], in [1] (5 mg/kg/day), the “Average survival time ± SD Oral” value was >40 days, the “% Parasite inhibition Oral 5th day” value worked out at 100%, the “% Parasite inhibition Oral 7th day” value worked out at 98% and the “Average survival time ± SD Subcutaneous” value was >40 days. In data set [1] (5 mg/kg/day), the “% Parasite inhibition Subcutaneous 5th day” value is 99% and the “% Parasite inhibition Subcutaneous 7th day” value was determined as 99%. Besides, the half-inhibitory concentration (IC50) in [2] (K1, 48 h) was 0.33 µM. The “Result Plasmodium falciparum K1” value in [2] is on record as “A (0.1 < IC50 ≤ 5 μM = active (A))”.
As to `CC(=O)O[C@@H]1C2C(C)(C)C(=O)C=C[C@]2(C)C2CC[C@@]3(C)[C@H](c4ccoc4)C(=O)[C@H]4O[C@]43[C@]2(C)[C@@H]1OC(C)=O` (stereo partly drawn) [compound 1, 6α-acetoxyepoxyazadiradione], the IC50 was > 191 µM in the data set on MRC-5 human fibroblasts (setting [8]) and 15.4 µM in data set [2] (K1 strain, 48 h incubation). Besides, the “Result Plasmodium falciparum K1” value in data set [2] is given as “MA (5 < IC50 ≤ 20 μM = moderately active (MA))”.
Taken in the same sequence, the figures for `C=C1[C@@H]([C@@]2(C)C=CC(=O)C(C)(C)[C@@H]2CC(=O)OC)CC[C@@]2(C)[C@H](c3ccoc3)OC(=O)[C@H]3O[C@]132` [compound 2, andirobin] were > 203 µM, 15.3 µM and “MA (5 < IC50 ≤ 20 μM = moderately active (MA))”.
In the case of `CC(=O)O[C@@H]1C2C(C)(C)C(=O)C=C[C@]2(C)C2CC[C@@]3(C)[C@H](c4ccoc4)OC(=O)[C@H]4O[C@]43[C@]2(C)[C@@H]1OC(C)=O` (stereo partly drawn) [compound 3, 6α-acetoxygedunin], in data set [1] (50 mg/kg/day), the “Average survival time ± SD Oral” value was determined as 20 ± 3 days, the “% Parasite inhibition Oral 7th day” value was found to be 34.7%, the “Average survival time ± SD Subcutaneous” value is 21 ± 2 days and the “% Parasite inhibition Subcutaneous 5th day” value is 34.4%. For the same compound, in [1] (50 mg/kg/day), the “% Parasite inhibition Subcutaneous 7th day” value came to 16.8%. Also, in data set [1] (setting [9]), the “% Parasite inhibition Oral 5th day” value was 40% and 40.2%. In addition, in [1] (100 mg/kg/day), the “Average survival time ± SD Oral” value was found to be 24 ± 3 days, the “% Parasite inhibition Oral 7th day” value was determined as 46.3%, the “Average survival time ± SD Subcutaneous” value was determined as 22 ± 4 days and the “% Parasite inhibition Subcutaneous 5th day” value is on record as 44.2%. Also, the “% Parasite inhibition Subcutaneous 7th day” value in [1] (100 mg/kg/day) was 30.4%. Besides, the “% Parasite inhibition Oral 5th day” value in data set [1] (setting [10]) was 66% and 65.7%. The half-inhibitory concentration (IC50) with MRC-5 human fibroblasts (setting [8]) was > 185 µM. Also, the IC50 in data set [2] (K1 strain, 48 h incubation) came to 7 µM. The “Result Plasmodium falciparum K1” value in data set [2] is reported as “MA (5 < IC50 ≤ 20 μM = moderately active (MA))”. In addition, the half-maximal inhibitory concentration (IC50) in data set [3] was 2.8 µM.
As to `CC1(C)C(=O)C=C[C@@]2(C)C1CC(=O)[C@]1(C)C2CC[C@@]2(C)[C@H](c3ccoc3)OC(=O)[C@H]3O[C@]321` (stereo partly drawn) [compound 4, 7-deacetoxy-7-oxogedunin], the “Average survival time ± SD Oral” value in [1] (50 mg/kg/day) was 20 ± 2 days; in data set [1] (100 mg/kg/day), 21 ± 3 days. Besides, the “% Parasite inhibition Oral 5th day” value is 19.3% in data set [1] (setting [9]); 40% and 40.3% in [1] (setting [10]). For the same compound, the entries for the “% Parasite inhibition Oral 7th day” value in [1] (50 mg/kg/day) and in data set [1] (100 mg/kg/day) were 0% and 28.9%, respectively. The “Average survival time ± SD Subcutaneous” value was 21 ± 4 days in data set [1] (50 mg/kg/day) and 22 ± 2 days in data set [1] (100 mg/kg/day). Also, the “% Parasite inhibition Subcutaneous 5th day” value in data set [1] (50 mg/kg/day) came to 29.2%; in [1] (100 mg/kg/day), 38.6%. The “% Parasite inhibition Subcutaneous 7th day” value in data set [1] (50 mg/kg/day) is given as 0%; in data set [1] (100 mg/kg/day), 21.7%. Besides, the half-inhibitory concentration (IC50) was > 22.8 µM in data set [4] (read-out: IC50 against the W2 strain of P. falciparum); 108 µM in the data set with MRC-5 human fibroblasts (MRC5, 48 h, read-out: IC50 Human fibroblasts MRC-5); 47.3 µg/mL with MRC-5 human fibroblasts (MRC5, 48 h, read-out: IC50 MRC-5 cells); 20.7 µM in data set [2] (K1, 48 h); 2.5 to 4.1 µM in [5]. The “Result Plasmodium falciparum K1” value in data set [2] is “I (IC50 > 20 μM = inactive (I))”.
In the case of `CC1(C)C(=O)C=C[C@@]2(C)C1[C@@H](O)[C@@H](O)[C@]1(C)C2CC[C@@]2(C)[C@H](c3ccoc3)OC(=O)[C@H]3O[C@]321` (stereo partly drawn) [compound 5, 6α-hydroxydeacetylgedunin], the 50% inhibitory concentration (IC50) in the data set with MRC-5 human fibroblasts (setting [8]) was > 219 µM; in data set [2] (K1 strain, 48 h incubation) it was 5 µM. The “Result Plasmodium falciparum K1” value in [2] was “A (0.1 < IC50 ≤ 5 μM = active (A))”.
In the case of `CC(=O)O[C@@H]1C[C@H]2C(C)(C)C(=O)C=C[C@]2(C)[C@H]2CC[C@@]3(C)[C@H](c4ccoc4)OC(=O)[C@H]4O[C@]43[C@@]21C` [compound 6, Gedunin], the IC50 in [6] was 0.4 to 2.5 µM. Besides, the “suppression of P. berghei in mice” value in the data set on P. berghei strain ANKA (oral doses of 25 or 100 mg/kg/day) was “did not suppress”.
With `CC(=O)O[C@@H]1C2C(C)(C)C(=O)C=C[C@]2(C)C2CC[C@@]3(C)[C@H](c4ccoc4)OC(=O)[C@H]4O[C@]43[C@]2(C)[C@@H]1O` (stereo partly drawn) [compound 7, andirolide H], the IC50 in [3] was 4 µM.
As to `CC(=O)O[C@@H]1[C@H](O)C2C(C)(C)C(=O)C=C[C@]2(C)C2CC[C@@]3(C)[C@H](c4ccoc4)OC(=O)[C@H]4O[C@]43[C@@]21C` (stereo partly drawn) [compound 8, 6α-hydroxygedunin], in [3], the half-maximal inhibitory concentration (IC50) is 90 µM.
As for `CC1(C)C(=O)C=C[C@@]2(C)C1C[C@@H](O)[C@]1(C)C2CC[C@@]2(C)[C@H](c3ccoc3)OC(=O)[C@H]3O[C@]321` (stereo partly drawn) [compound 9, 7-deacetylgedunin], the “stability under physiologic conditions found in mice” value in data set [7] (physiologic conditions) is listed as “unstable”. In addition, in data set [7] (simulated gastric (low pH)), the “stability under simulated gastric (low pH) conditions” value is reported as “low stability”. Also, the “IC50 against D6” value in the data set on P. falciparum D6 (D6) was 2.6 µg/mL (≈ 5.9 µM). For the same compound, the “times less in vitro activity than gedunin” value with P. falciparum D6 (D6 and W2, compared to gedunin) is listed as “about 65 times”. For the same compound, in data set [4], the “IC50 against W2” value is 1.3 µg/mL (≈ 2.95 µM).
On to `CO[C@@H]1CC2C(C)(C)C(=O)C=C[C@]2(C)C2CC[C@@]3(C)[C@H](c4ccoc4)OC(=O)[C@H]4O[C@]43[C@@]21C` (stereo partly drawn) [compound 10, 7-deacetyl-7-O-methylgedunin], for which the “inhibition of parasitaemia of P. berghei ANKA in mice” value in the data set with P. berghei strain ANKA (oral, 50 mg/kg/day) is listed as 68%.
As to `C=C1[C@@H]2CC[C@@]3(C)[C@H](c4ccoc4)OC(=O)C[C@]13O[C@H]1CC(=O)C(C)(C)[C@H](CC(=O)OC)[C@]12C` [methyl angolensate], in data set [3], the IC50 is 12 to 15 µM.
On to `C=C[C@H]1C[N@@]2CC[C@H]1C[C@H]2[C@H](O)c1ccnc2ccc(OC)cc12` [quinine sulfate, reference compound], for which the IC50 in [2] (K1 strain, 48 h incubation) turned out to be 0.3 µM. The “Result Plasmodium falciparum K1” value in data set [2] is listed as “A (0.1 < IC50 ≤ 5 μM = active (A))”.
As to `C=C[C@H]1C[N@@]2CC[C@H]1C[C@H]2[C@H](O)c1ccnc2ccc(OC)cc12` [quinine], in the data set on P. berghei strain ANKA (mice infected with P. berghei strain ANKA), the “median effective dose (ED50)” value is 34 mg/kg/day.
`C[C@H]1[C@H](OC(=O)CCC(=O)[O-])O[C@@H]2O[C@@]3(C)CC[C@H]4[C@H](C)CC[C@@H]1[C@@]24OO3.[Na+]` [sodium artesunate]: the “doses at which infected mice exhibit recrudescence” value in the data set with Plasmodium vinckei is < 80 mg/kg/day.
